In US7935530B2, “Polyamides with tail structures capable of binding DNA” (California Institute of Technology, priority 2006, dated 2011):
Entries after “also recorded” stand apart in the source; their conditions may differ.

How the values were obtained:
TFRC = experiment: HIF-1 induced gene expression, U251 cells (Table 3), TFRC; format: cell-based, human; details: HRE agcgTACGTGcctc; R siRNA, E 100 nM, 11.1 and 11.3 1 μM; unit not given
Description: (§1) U251 cells were plated in 24-well plates at a density of 20−30×10^3 cells per well (40−60×10^3 cells/ml) in RPMI (ATCC) supplemented with 5% FBS (Irvine Scientific). After 24 hours, polyamides were added to the adhered cells in cell media solutions at the appropriate concentration and incubated with the cells for 48 hours. […] When appropriate, echinomycin was added two hours prior to DFO stimulation. Isolation of RNA and subsequent cDNA synthesis were as previously described (19). When appropriate, HIF-1α siRNA (HIF-1α validated stealth duplex, Invitrogen) or mismatch control siRNA with similar GC content (Invitrogen) was transfected 48 hours prior to RNA isolation. Transfection of siRNA was achieved using Lipofectamine 2000 (Invitrogen) according to manufacturer's protocols. Quantitative real-time RT-PCR was performed using SYBR Green PCR Master Mix (Applied Biosystems) on an ABI 7300 instrument. Target gene mRNA was measured relative to β-glucuronidase as an endogenous control. Primer employed were: VEGF, L 5′[…]-3′ (SEQ ID NO:22), R 5′-GGGTACTCC TGGAAGATGTCC-3′ (SEQ ID NO:23); β-glucuronidase, L 5′-[…]-3′ (SEQ ID NO:24), R 5′-[…]-3′ (SEQ ID NO:25); FLT1, L 5′-[…]-3′ (SEQ ID NO:26), R 5′-[…]-3′ (SEQ ID NO:27).

[1] = test system: HIF-1 occupancy at the PGK1 HRE; experiment: Chromatin immunoprecipitation of HIF-1α, U251 cells, PGK1 HRE; format: cell-based, human; details: DFO-induced, polyamides 1 μM, echinomycin 100 nM
Description: (§2) U251 cells were plated in 15 cm diameter plates and left to attach overnight. Media, time course, DFO, polyamide, echinomycin, and siRNA treatments were as described above. After the 16 hour DFO treatment, cells were treated with 1% formaldehyde for 10 minutes. Chromatin was isolated and sheared. HIF-1α antibodies (Novus Biologicals) were used to immunoprecipitate HIF-1-bound DNA fragments. After crosslink reversal, PCRs using primers targeted to the regions of interest were used to assess enrichment of bound fragments as compared to mock-precipitated (no antibody) controls. PCRs were monitored either using SYBR Green PCR Master Mix (Applied Biosystems) on an ABI 7300 instrument, or directly visualized using gel electrophoresis. The following primers were used: VEGF, L 5′-CCTTTGGGTTTTGCCAGA-3′ (SEQ ID NO:28), R 5′-CCAAGTTTGTGGAGCTGA-3′ (SEQ ID NO:29); CA9, L 5′-AAAAGGGCGCTCTGTGAGT-3′ (SEQ ID NO:30), R 5′-GCTGACTGTGGGGTGTCC-3′ (SEQ ID NO:31); PGK1, L 5′-CCCCTAAGTCGGGAAGGTT-3′ (SEQ ID NO:32), R 5′-[…]-3′ (SEQ ID NO:33).

[2] = test system: HIF-1α occupancy at the VEGF HRE; experiment: Chromatin immunoprecipitation with anti-HIF1α, U251 cells, VEGF HRE; format: cell-based, human; details: DFO-induced, polyamides 1 μM, echinomycin 100 nM
Description: Cells were plated on 15 cm diameter culture dishes and left to attach overnight. Polyamides were incubated with the cells for 48 h, and the cells were incubated for an additional 16 h after the addition of DFO to a final concentration of 300 μM. Cells were then treated with 1% formaldehyde for 10 min. Chromatin was isolated and sheared. HIF-1 antibodies (Novus Biologicals) were used to immunoprecipitate HIF-1 bound DNA fragments. After crosslink reversal, PCRs using primers flanking the HRE of VEGF were used to assess enrichment of bound fragments as compared to mock-precipitated (no antibody) controls. PCRs were monitored either using SYBR Green PCR Master Mix (Applied Biosystems) on an ABI 7300 instrument, or directly visualized using gel electrophoresis.
as §2

[3] = test system: 5′-ATACGT-3′ sequence within the HRE of the VEGF promoter; experiment: Quantitative DNase I footprint titration on pGL2-VEGF-Luc PCR product, VEGF HRE; format: binding; details: for Ka at the VEGF HRE: Example 2, pGL2-VEGF-Luc
Description: Quantitative DNase I footprint titration experiments were used to determine polyamide-binding affinities (Ka) to the 5′-ATACGT-3′ sequence within the HRE of the VEGF promoter. These experiments were performed using the 5′-^32P-labeled 197 bp PCR amplification product of the plasmid pGL2-VEGF-Luc isolated by non-denaturing gel electrophoresis (16, 21). Quantitative DNase I footprint titration experiments were conducted as reported previously (21).
Quantitative DNase I footprint titration experiments were used to measure the binding affinities of polyamides 11.1, 11.2, 11.3, and echinomycin on 5′ ^32P-labeled fragments of pGL2-VEGF-Luc and pCSJ-FLT1 containing promoter sequences containing the HREs of VEGF and FLT1, respectively. Quantitative DNase I footprint titration experiments were conducted as reported previously (56).

PGK1 = experiment: HIF-1 induced gene expression, U251 cells (Table 3), PGK1; format: cell-based, human; details: HREs gtgaGACGTGcggc, tgccGACGTGcgct, E 100 nM
Description: as §1

VEGF mRNA = experiment: DFO-induced VEGF mRNA by quantitative real-time RT-PCR, U251 cells; format: cell-based, human; details: for HIF-1 induced genes affected: VEGF: HRE tgcaTACGTGggct, E 100 nM, 11.1 and 11.3 1 μM, U251; for Effect on DFO-induced VEGF mRNA (in words) / Effect on induced VEGF expression (in words) / Induction of VEGF mRNA by DFO (in words), FIG. 15a legend: U251 cells; for Effect on DFO-induced VEGF mRNA (in words): 0.2 and 1 μM; for Effect on induced VEGF expression (in words): Example 2, polyamides 1 μM, echinomycin 100 nM; for Induction of VEGF mRNA by DFO (in words), FIG. 15a legend: echinomycin (100 nM), polyamides (10 μM)
Description: Cells were plated in 24-well plates at a density of 15-20×10^3 cells per well (30-40×10^3 cells/ml). Polyamides were added to adhered cells in solutions of cell media at the appropriate concentration and allowed to incubate with the cells for 48 h. […] Cells were harvested, RNA isolated, cDNA synthesized and quantitative real-time RT-PCR conducted as described previously (16). Briefly, RNA was isolated using the RNeasy kit (Qiagen), cDNA synthesized using Powerscript (BD Biosciences) and quantitative real-time RT-PCR performed using SYBR Green PCR Master Mix (Applied Biosystems) on an ABI 7300 instrument. VEGF expression was measured relative to β-glucuronidase (GUSB) as an endogenous control. Statistical analyses of results were determined using three independent biological replicates. The primer sequences used for VEGF and GUSB are available upon request. HeLa cells were purchased from ATCC and U251 cells were received as a gift from Dr Giovanni Melillo of the National Cancer Institute.
as §1

LDHA = experiment: HIF-1 induced gene expression, U251 cells (Table 3), LDHA; format: cell-based, human; details: HREs ggcgGACGTGcggg, ctcaCACGTGggtt, E 100 nM
Description: as §1

[4] = test system: HIF-1 occupancy at the carbonic anhydrase IX (CA9) HRE; experiment: Chromatin immunoprecipitation of HIF-1α, U251 cells, CA9 HRE; format: cell-based, human; details: DFO-induced, polyamides 1 μM, echinomycin 100 nM
Description: as §2

PKFB3 = experiment: HIF-1 induced gene expression, U251 cells (Table 3), PKFB3; format: cell-based, human; details: HREs gcggGACGTGacgc, gacgCACGTGggca; E 100 nM, 11.1 and 11.3 1 μM
Description: as §1

EGLN3 = experiment: HIF-1 induced gene expression, U251 cells (Table 3), EGLN3; format: cell-based, human; details: HRE gggcTACGTGcaga, E 100 nM
Description: as §1

| Compound | HIF-1 induced genes affected: TFRC (TFRC) | HIF-1 occupancy at PGK1 (chromatin immunoprecipitation) [1] | HIF-1α occupancy at the VEGF HRE (chromatin immunoprecipitation) [2] | HIF-1α occupancy at the VEGF HRE (chromatin immunoprecipitation) ([2]; listed as 11.1) | Binding affinities (M-1), 5′-TACGTG-3′ (equilibrium association constants) ([3]; mean of three DNase I footprint titration experiments, standard deviations in parentheses, 197 bp PCR product of pGL2-VEGF-Luc) | HIF-1 induced genes affected: PGK1 (PGK1; 11.1 and 11.3 1 μM) | HIF-1 induced genes affected: VEGF (VEGF mRNA) | Effect on DFO-induced VEGF mRNA (in words) (VEGF mRNA) | Effect on induced VEGF expression (in words) (VEGF mRNA) | Induction of VEGF mRNA by DFO (in words), FIG. 15a legend (VEGF mRNA) | HIF-1 induced genes affected: LDHA (LDHA; 11.1 and 11.3 1 μM) | HIF-1 occupancy at the carbonic anhydrase IX locus (chromatin immunoprecipitation) [4] | HIF-1 induced genes affected: PKFB3 (PKFB3) | HIF-1 induced genes affected: EGLN3 (EGLN3; 11.1 and 11.3 1 μM) | HIF-1α occupancy at the VEGF HRE (chromatin immunoprecipitation) ([2]; listed as 11.3) | Ka at the VEGF HRE [3] | Effect on induced VEGF expression (in words) (VEGF mRNA; listed as 11.3) | HIF-1 induced genes affected: PGK1 (PGK1) | HIF-1 induced genes affected: LDHA (LDHA) | HIF-1 induced genes affected: EGLN3 (EGLN3) |
| --- | --- | --- | --- | --- | --- | --- | --- | --- | --- | --- | --- | --- | --- | --- | --- | --- | --- | --- | --- | --- |
| CN(CCCNC(=O)c1cccc(C(=O)O)c1)CCCNC(=O)c1cc(NC(=O)c2cc(NC(=O)c3nc(NC(=O)c4cc(NC(=O)[C@H](N)CCNC(=O)c5nc(NC(=O)c6cc(NC(=O)c7cc(NC(=O)c8sccc8Cl)cn7C)cn6C)cn5C)cn4C)cn3C)cn2C)cn1C [Polyamide 11] | 1.1 | minimally affected | decreased occupancy of HIF-1α at the VEGF HRE; also recorded: inhibited | decreased | 2.6 (±0.4) × 10^10 M-1 | -1.2 | -2.0 | inhibited dose dependently; also recorded: dose-dependent inhibition of VEGF | inhibited most of the increase in VEGF mRNA following DFO treatment | decrease VEGF mRNA levels to near non-induced levels | 1.3 | decreased | 1.0 | 1.0 |  |  |  |  |  |  |
| CN(CCCNC(=O)c1cccc(C(=O)O)c1)CCCNC(=O)c1cc(NC(=O)c2cc(NC(=O)c3cc(NC(=O)c4nc(NC(=O)[C@H](N)CCNC(=O)c5cc(NC(=O)c6cc(NC(=O)c7nc(NC(=O)c8nccn8C)cn7C)cn6C)cn5C)cn4C)cn3C)cn2C)cn1C [Polyamide 23] | 1.4 | minimally affected | more modest effect compared with that of its match congener 11 |  |  | 1.0 | -1.3 | more modest effect than its match congener 11; also recorded: modest activity at both concentrations |  | more modest effect | 1.1 | unaffected | 1.0 | −1.1 | less so; also recorded: only modestly affected | 8.0 (±1.0)×10^8 M^−1 | more modest effect on VEGF mRNA levels; also recorded: modest but measurable effect on VEGF expression |  |  |  |
| CS[C@H]1SC[C@H]2C(=O)N(C)[C@@H](C(C)C)C(=O)OC[C@@H](NC(=O)c3cnc4ccccc4n3)C(=O)N[C@@H](C)C(=O)N(C)[C@@H]1C(=O)N(C)[C@@H](C(C)C)C(=O)OC[C@@H](NC(=O)c1cnc3ccccc3n1)C(=O)N[C@@H](C)C(=O)N2C [echinomycin, reference compound] | −2.3 | did not appear to affect HIF-1 occupancy at this locus | decreased |  |  |  | -34.0 |  | potently inhibits VEGF expression to levels below the non-induced control | potently inhibits VEGF mRNA to below non-induced levels |  | decreased | −82.0 |  |  | 8.4 (±2.1)×10^6 M^−1 |  | -3.3 | −4.4 | −33.6 |
